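Results reflect a 48-hour exposure of cells in 96-well plates to compound at five concentrations. GI50: concentration for 50% inhibition of growth. TGI denotes the concentration required for complete inhibition of growth.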
Assays:
Assay in all cases: inhibition of tumour cell growth, NCI panel, 48 h
HOP-92 NSCLC = system: HOP-92 NSCLC
SNB-19 CNS = system: SNB-19 CNS
SF-268 CNS = system: SF-268 CNS
SN12C renal = system: SN12C renal
UACC-257 melanoma = system: UACC-257 melanoma
NCI-H226 lung = system: NCI-H226 lung
MOLT-4 leukemia = system: MOLT-4 leukemia
SK-MEL-5 melanoma = system: SK-MEL-5 melanoma
SR leukemia = system: SR leukemia
OVCAR-5 ovarian = system: OVCAR-5 ovarian
HS 578T breast = system: HS 578T breast
SK-OV-3 ovarian = system: SK-OV-3 ovarian
MDA-MB-435 = system: MDA-MB-435
MALME-3M melanoma = system: MALME-3M melanoma
LOX IMVI melanoma = system: LOX IMVI melanoma
SK-MEL-2 melanoma = system: SK-MEL-2 melanoma
ACHN renal = system: ACHN renal
DU-145 prostate = system: DU-145 prostate
M14 melanoma = system: M14 melanoma
OVCAR-8 ovarian = system: OVCAR-8 ovarian
U251 CNS = system: U251 CNS
IGROV1 ovarian = system: IGROV1 ovarian
T-47D breast = system: T-47D breast
RPMI-8226 leukemia = system: RPMI-8226 leukemia
SNB-75 CNS = system: SNB-75 CNS
OVCAR-3 ovarian = system: OVCAR-3 ovarian
HCT-15 colon = system: HCT-15 colon
A549 NSCLC = system: A549 NSCLC
BT-549 breast = system: BT-549 breast
A498 renal = system: A498 renal
HCC-2998 colon = system: HCC-2998 colon
786-0 renal = system: 786-0 renal
SW-620 colon = system: SW-620 colon
NCI-H23 lung = system: NCI-H23 lung
PC-3 prostate = system: PC-3 prostate
NCI-H522 lung = system: NCI-H522 lung
NCI/ADR-RES ovarian = system: NCI/ADR-RES ovarian
SK-MEL-28 melanoma = system: SK-MEL-28 melanoma
KM12 colon = system: KM12 colon
SF-539 CNS = system: SF-539 CNS
UO-31 renal = system: UO-31 renal
MCF7 breast = system: MCF7 breast
OVCAR-4 ovarian = system: OVCAR-4 ovarian
HCT-116 colon = system: HCT-116 colon
SF-295 CNS = system: SF-295 CNS
MDA-N = system: MDA-N
COLO 205 colon = system: COLO 205 colon
RXF 393 renal = system: RXF 393 renal
K-562 leukemia = system: K-562 leukemia
EKVX NSCLC = system: EKVX NSCLC
TK-10 renal = system: TK-10 renal
HT29 colon = system: HT29 colon
UACC-62 melanoma = system: UACC-62 melanoma
MDA-MB-231 breast = system: MDA-MB-231 breast
NCI-H460 lung = system: NCI-H460 lung
CAKI-1 renal = system: CAKI-1 renal
HOP-62 NSCLC = system: HOP-62 NSCLC
CCRF-CEM leukemia = system: CCRF-CEM leukemia

O=[N+]([O-])[O][Sn]([O][Sn]([O][N+](=O)[O-])([c]1ccccc1)[c]1ccccc1)([c]1ccccc1)[c]1ccccc1 was tested, and the GI50 (HOP-92 NSCLC) was 38.6 µM, the TGI (HOP-92 NSCLC) was > 100 µM and the GI50 (SNB-19 CNS) was > 100 µM. For the same compound, the TGI (SNB-19 CNS) was > 100 µM, the GI50 (SF-268 CNS) was > 100 µM and the TGI (SF-268 CNS) was > 100 µM. For the same compound, the GI50 (SN12C renal) was > 100 µM, the TGI (SN12C renal) was > 100 µM and the GI50 (UACC-257 melanoma) was > 100 µM. The TGI (UACC-257 melanoma) was > 100 µM, the GI50 (NCI-H226 lung) was > 100 µM and the TGI (NCI-H226 lung) was > 100 µM. For the same compound, the GI50 (MOLT-4 leukemia) was > 100 µM, the TGI (MOLT-4 leukemia) was > 100 µM and the GI50 (SK-MEL-5 melanoma) was > 100 µM. For the same compound, the TGI (SK-MEL-5 melanoma) was > 100 µM, the GI50 (SR leukemia) was > 100 µM and the TGI (SR leukemia) was > 100 µM. For the same compound, the GI50 (OVCAR-5 ovarian) was > 100 µM, the TGI (OVCAR-5 ovarian) was > 100 µM and the GI50 (HS 578T breast) was 47.1 µM. The TGI (HS 578T breast) was > 100 µM, the GI50 (SK-OV-3 ovarian) was > 100 µM and the TGI (SK-OV-3 ovarian) was > 100 µM. For the same compound, the GI50 (MDA-MB-435) was > 100 µM, the TGI (MDA-MB-435) was > 100 µM and the GI50 (MALME-3M melanoma) was 79.3 µM. The TGI (MALME-3M melanoma) was > 100 µM, the GI50 (LOX IMVI melanoma) was 83.4 µM and the TGI (LOX IMVI melanoma) was > 100 µM. The GI50 (SK-MEL-2 melanoma) was > 100 µM, the TGI (SK-MEL-2 melanoma) was > 100 µM and the GI50 (ACHN renal) was > 100 µM. For the same compound, the TGI (ACHN renal) was > 100 µM, the GI50 (DU-145 prostate) was > 100 µM and the TGI (DU-145 prostate) was > 100 µM. The GI50 (M14 melanoma) was > 100 µM, the TGI (M14 melanoma) was > 100 µM and the GI50 (OVCAR-8 ovarian) was > 100 µM. For the same compound, the TGI (OVCAR-8 ovarian) was > 100 µM, the GI50 (U251 CNS) was > 100 µM and the TGI (U251 CNS) was > 100 µM. For the same compound, the GI50 (IGROV1 ovarian) was 72.8 µM, the TGI (IGROV1 ovarian) was > 100 µM and the GI50 (T-47D breast) was > 100 µM. The TGI (T-47D breast) was > 100 µM, the GI50 (RPMI-8226 leukemia) was > 100 µM and the TGI (RPMI-8226 leukemia) was > 100 µM. The GI50 (SNB-75 CNS) was > 100 µM, the TGI (SNB-75 CNS) was > 100 µM and the GI50 (OVCAR-3 ovarian) was > 100 µM. The TGI (OVCAR-3 ovarian) was > 100 µM, the GI50 (HCT-15 colon) was > 100 µM and the TGI (HCT-15 colon) was > 100 µM. For the same compound, the GI50 (A549 NSCLC) was > 100 µM, the TGI (A549 NSCLC) was > 100 µM and the GI50 (BT-549 breast) was > 100 µM. For the same compound, the TGI (BT-549 breast) was > 100 µM, the GI50 (A498 renal) was > 100 µM and the TGI (A498 renal) was > 100 µM. The GI50 (HCC-2998 colon) was > 100 µM, the TGI (HCC-2998 colon) was > 100 µM and the GI50 (786-0 renal) was > 100 µM. The TGI (786-0 renal) was > 100 µM, the GI50 (SW-620 colon) was > 100 µM and the TGI (SW-620 colon) was > 100 µM. The GI50 (NCI-H23 lung) was > 100 µM, the TGI (NCI-H23 lung) was > 100 µM and the GI50 (PC-3 prostate) was 63.2 µM. For the same compound, the TGI (PC-3 prostate) was > 100 µM, the GI50 (NCI-H522 lung) was 23.1 µM and the TGI (NCI-H522 lung) was > 100 µM. For the same compound, the GI50 (NCI/ADR-RES ovarian) was > 100 µM, the TGI (NCI/ADR-RES ovarian) was > 100 µM and the GI50 (SK-MEL-28 melanoma) was > 100 µM. For the same compound, the TGI (SK-MEL-28 melanoma) was > 100 µM, the GI50 (KM12 colon) was > 100 µM and the TGI (KM12 colon) was > 100 µM. For the same compound, the GI50 (SF-539 CNS) was > 100 µM, the TGI (SF-539 CNS) was > 100 µM and the GI50 (UO-31 renal) was > 100 µM. For the same compound, the TGI (UO-31 renal) was > 100 µM, the GI50 (MCF7 breast) was > 100 µM and the TGI (MCF7 breast) was > 100 µM. The GI50 (OVCAR-4 ovarian) was > 100 µM, the TGI (OVCAR-4 ovarian) was > 100 µM and the GI50 (HCT-116 colon) was > 100 µM. The TGI (HCT-116 colon) was > 100 µM, the GI50 (SF-295 CNS) was > 100 µM and the TGI (SF-295 CNS) was > 100 µM. The GI50 (MDA-N) was > 100 µM, the TGI (MDA-N) was > 100 µM and the GI50 (COLO 205 colon) was > 100 µM. The TGI (COLO 205 colon) was > 100 µM, the GI50 (RXF 393 renal) was > 100 µM and the TGI (RXF 393 renal) was > 100 µM. For the same compound, the GI50 (K-562 leukemia) was > 100 µM, the TGI (K-562 leukemia) was > 100 µM and the GI50 (EKVX NSCLC) was > 100 µM. The TGI (EKVX NSCLC) was > 100 µM, the GI50 (TK-10 renal) was > 100 µM and the TGI (TK-10 renal) was > 100 µM. For the same compound, the GI50 (HT29 colon) was > 100 µM, the TGI (HT29 colon) was > 100 µM and the GI50 (UACC-62 melanoma) was 53.6 µM. The TGI (UACC-62 melanoma) was > 100 µM, the GI50 (MDA-MB-231 breast) was > 100 µM and the TGI (MDA-MB-231 breast) was > 100 µM. The GI50 (NCI-H460 lung) was > 100 µM, the TGI (NCI-H460 lung) was > 100 µM and the GI50 (CAKI-1 renal) was > 100 µM. For the same compound, the TGI (CAKI-1 renal) was > 100 µM, the GI50 (HOP-62 NSCLC) was > 100 µM and the TGI (HOP-62 NSCLC) was > 100 µM.
O=C(/C=C/c1ccc2c(c1)OCO2)NCc1ccco1 was tested, and the TGI (HOP-92 NSCLC) was > 100 µM, the TGI (SNB-19 CNS) was > 100 µM and the TGI (SN12C renal) was > 100 µM. For the same compound, the TGI (UACC-257 melanoma) was > 100 µM, the TGI (NCI-H226 lung) was > 100 µM and the TGI (MOLT-4 leukemia) was > 100 µM. For the same compound, the TGI (SK-MEL-5 melanoma) was > 100 µM, the TGI (SR leukemia) was > 100 µM and the TGI (OVCAR-5 ovarian) was > 100 µM. For the same compound, the TGI (HS 578T breast) was > 100 µM, the TGI (SK-OV-3 ovarian) was > 100 µM and the TGI (MDA-MB-435) was > 100 µM. The TGI (MALME-3M melanoma) was > 100 µM, the TGI (LOX IMVI melanoma) was > 100 µM and the TGI (SK-MEL-2 melanoma) was > 100 µM. For the same compound, the TGI (ACHN renal) was > 100 µM, the TGI (DU-145 prostate) was > 100 µM and the TGI (M14 melanoma) was > 100 µM. The TGI (OVCAR-8 ovarian) was > 100 µM, the TGI (U251 CNS) was > 100 µM and the TGI (IGROV1 ovarian) was > 100 µM. The TGI (CCRF-CEM leukemia) was > 100 µM, the TGI (T-47D breast) was 80.9 µM and the TGI (SNB-75 CNS) was > 100 µM. For the same compound, the TGI (OVCAR-3 ovarian) was > 100 µM, the TGI (HCT-15 colon) was > 100 µM and the TGI (A549 NSCLC) was > 100 µM. For the same compound, the TGI (BT-549 breast) was > 100 µM, the TGI (A498 renal) was > 100 µM and the TGI (HCC-2998 colon) was > 100 µM. For the same compound, the TGI (786-0 renal) was > 100 µM, the TGI (SW-620 colon) was > 100 µM and the TGI (NCI-H23 lung) was > 100 µM. For the same compound, the TGI (PC-3 prostate) was > 100 µM, the TGI (NCI/ADR-RES ovarian) was > 100 µM and the TGI (SK-MEL-28 melanoma) was > 100 µM. For the same compound, the TGI (KM12 colon) was > 100 µM, the TGI (SF-539 CNS) was > 100 µM and the TGI (UO-31 renal) was > 100 µM. For the same compound, the TGI (MCF7 breast) was > 100 µM, the TGI (OVCAR-4 ovarian) was > 100 µM and the TGI (HCT-116 colon) was > 100 µM. The TGI (SF-295 CNS) was > 100 µM, the TGI (MDA-N) was > 100 µM and the TGI (COLO 205 colon) was > 100 µM. The TGI (K-562 leukemia) was > 100 µM, the TGI (EKVX NSCLC) was > 100 µM and the TGI (TK-10 renal) was > 100 µM. The TGI (HT29 colon) was > 100 µM, the TGI (UACC-62 melanoma) was > 100 µM and the TGI (MDA-MB-231 breast) was > 100 µM. For the same compound, the TGI (NCI-H460 lung) was > 100 µM, the TGI (CAKI-1 renal) was > 100 µM and the TGI (HOP-62 NSCLC) was > 100 µM.

Reference: PubChem BioAssay (NCI)
